Measured values published in patent publication US20180343865A1, “HERBICIDAL COMPOSITIONS COMPRISING ISOXAZOLO[5,4-B]PYRIDINES” (BASF SE, priority 2015, published 2018).

Key:
Type in all cases: in vivo
Abutilon theoprasti = test: Greenhouse postemergence herbicidal activity on ABUTH, 20 DAT; conditions: for % activity, solo MCPA: 20 DAT
Method: (§1) For the post emergence treatment, the plants were first grown to the 2 leaf station (GS 12) and applied at GS 12-19 depending on the species. The herbicidal compositions were suspended or emulsified in water as distribution medium and sprayed using finely distributing nozzles.
(§2) The plants have been cultivated due to their individual requirements at 10 to 25° C. and. 20 to 35° C. The plants were irrigated due to their necessity.
(§3) The respective stated components A), were formulated as a 5% by weight strength emulsion concentrate containing wettol EM 31 20% and Cyclohexanone 80%. The respective stated components B), were formulated as either emulsifiable concentrates (EC), soluble liquids (SL), suspension concentrates (SC) or soluble granules (SG) as indicated in the table below. Component A, component B and the solvent system are introduced into the spray liquor used for applying the active compound. In the examples, the solvent used was water containing 1% Dash (Agnique ME 181 37.5%, Lutensit A-EP 22.5%, and Oleic Acid 5%) and 2% ammonium suflate.
(§4) In the following experiments, the herbicidal activity for the individual herbicide compounds (solo and mixture applications), the herbicidal succession was assessed 20 days after treatment (DAT). The evaluation for the damage on undesired weeds caused by the chemical compositions was carried out using a scale from 0 to 100%, compared to the untreated control plants. Here, 0 means no damage and 100 means complete destruction of the plants. The plants used in the greenhouse experiments belonged to the following species:
(§5) The value E, which corresponds to the effect (in %) that is to be expected if the activity of the individual compounds is additive, was calculated using the method of S. R. Colby (1967) “Calculating synergistic and antagonistic responses of herbicide combinations”, Weeds 15, p. 22 ff. Colby calculation for 2 way mixtures:
(§6) where: • X=effect in percent using herbicide A at an application rate a; • Y=effect in percent using herbicide B at an application rate b; • E=expected effect (in %) of A+B at application rates a+b
(§7) If the value observed in this manner is higher than the value E calculated according to Colby, a synergistic effect is present.

Ambrosia elatior = test: Greenhouse postemergence herbicidal activity on AMBEL, 20 DAT; conditions: for % activity, solo MCPA: AMBEL, postemergence, 20 DAT
Method: as §1, §2, §3, §4, §5, §6, §7

Polygonum convolvulus = test: Greenhouse postemergence herbicidal activity on POLCO, 20 DAT; conditions: for % activity, solo MCPA: 20 DAT
Method: as §1, §2, §3, §4, §5, §6, §7

Amaranthus retroflexus = test: Greenhouse postemergence herbicidal activity on AMARE, 20 DAT; conditions: for % activity, solo MCPA: 20 DAT
Method: as §1, §2, §3, §4, §5, §6, §7

Chenopodium album = test: Greenhouse postemergence herbicidal activity on CHEAL, 20 DAT
Method: as §1, §2, §3, §4, §5, §6, §7

Conyza canadiensis = test: Greenhouse postemergence herbicidal activity on ERICA, 20 DAT
Method: as §1, §2, §3, §4, §5, §6, §7

Ipomoea hederacea = test: Greenhouse postemergence herbicidal activity on IPOHE, 20 DAT; conditions: for % activity, solo MCPA: 20 DAT
Method: as §1, §2, §3, §4, §5, §6, §7

Matricaria chamomilla = test: Greenhouse postemergence herbicidal activity on MATCH, 20 DAT; conditions: for % activity, solo MCPA: 20 DAT
Method: as §1, §2, §3, §4, §5, §6, §7

Polygonum aviculare = test: Greenhouse postemergence herbicidal activity on POLAV, 20 DAT
Method: as §1, §2, §3, §4, §5, §6, §7

Polygonum persicaria = test: Greenhouse postemergence herbicidal activity on POLPE, 20 DAT; conditions: for % activity, solo MCPA: postemergence, 20 DAT
Method: as §1, §2, §3, §4, §5, §6, §7

Stellaria media = test: Greenhouse postemergence herbicidal activity on STEME, 20 DAT; conditions: for % activity, solo MCPA: 20 DAT
Method: as §1, §2, §3, §4, §5, §6, §7

Sorghum bicolor = test: Greenhouse postemergence herbicidal activity on SORVU, 20 DAT
Method: as §1, §2, §3, §4, §5, §6, §7

Setaria viridis = test: Greenhouse postemergence herbicidal activity on SETVI, 20 DAT; conditions: post-emergence, 62.5 gai/ha, read-out: % activity, solo application dicuran
Method: as §1, §2
The respective stated components A), were formulated as a 5% by weight strength emulsion concentrate containing wettol EM 31 20% and Cyclohexanone 80%. The respective stated components B), were formulated as either emulsifiable concentrates (EC), soluble liquids (SL), suspension concentrates (SC) or soluble granules (SG) as indicated in the table below. […]
In the following experiments, the herbicidal activity for the individual herbicide compounds (solo and mixture applications), the herbicidal succession was assessed 20 days after treatment (DAT). […]
The value E, which corresponds to the effect (in %) that is to be expected if the activity of the individual compounds is additive, was calculated using the method of S. R. Colby (1967) “Calculating synergistic and antagonistic responses of herbicide combinations”, Weeds 15, p. […]
as §7

Galium aparine = test: Greenhouse postemergence herbicidal activity on GALAP, 20 DAT; conditions: Galium aparine, post-emergence, 62.5 gai/ha, read-out: % activity, solo application dicuran
Method: as §1, §2, §3, §4, §5, §6, §7

ALOMY = test: Greenhouse postemergence herbicidal activity on ALOMY, 20 DAT; conditions: Alopecurus myosuroides, post-emergence, 62.5 gai/ha, read-out: % activity, solo application dicuran
APESV = test: Greenhouse postemergence herbicidal activity on APESV, 20 DAT; conditions: post-emergence, 62.5 gai/ha, read-out: % activity, solo application dicuran
AVEFA = test: Greenhouse postemergence herbicidal activity on AVEFA, 20 DAT; conditions: Avena fatua, post-emergence, 62.5 gai/ha, read-out: % activity, solo application dicuran
BROST = test: Greenhouse postemergence herbicidal activity on BROST, 20 DAT; conditions: post-emergence, 62.5 gai/ha, read-out: % activity, solo application dicuran
CONAR = test: Greenhouse postemergence herbicidal activity on CONAR, 20 DAT; conditions: post-emergence, 62.5 gai/ha, read-out: % activity, solo application dicuran
DIGSA = test: Greenhouse postemergence herbicidal activity on DIGSA, 20 DAT; conditions: Digitaria sanguinalis, post-emergence, 62.5 gai/ha, read-out: % activity, solo application dicuran
[1] = Ambrosia artemisiifolia, post-emergence, 480 h, read-out: % activity, solo metsulfuron
[2] = Fallopia convolvulus, post-emergence, 480 h, read-out: % activity, solo metsulfuron
[3] = Persicaria maculosa, post-emergence, 480 h, read-out: % activity, solo metsulfuron
[4] = Sorghum bicolor, post-emergence, 480 h, read-out: % activity, solo metsulfuron

## Cc1cc(Cl)ccc1OCC(=O)O [MCPA]
Abutilon theoprasti; 50 gai/ha
  % activity, solo MCPA: 60%
Abutilon theoprasti; 200 gai/ha
  % activity, solo MCPA: 75%
Ambrosia elatior; 50 gai/ha
  % activity, solo MCPA: 65%
Ambrosia elatior; 100 gai/ha
  % activity, solo MCPA: 65%
Polygonum convolvulus; POLCO, 50 gai/ha, postemergence
  % activity, solo MCPA: 0%
Polygonum convolvulus; POLCO, 100 gai/ha, postemergence
  % activity, solo MCPA: 0%
Polygonum convolvulus; POLCO, 200 gai/ha, postemergence
  % activity, solo MCPA: 0%
Amaranthus retroflexus; AMARE, 50 gai/ha, postemergence
  % activity, solo MCPA: 55%
Amaranthus retroflexus; AMARE, 100 gai/ha, postemergence
  % activity, solo MCPA: 65%
Amaranthus retroflexus; AMARE, 200 gai/ha, postemergence
  % activity, solo MCPA: 90%
Chenopodium album; 200 gai/ha, 20 DAT
  % activity, solo MCPA: 90%
Conyza canadiensis; ERICA, 50 gai/ha, postemergence, 20 DAT
  % activity, solo MCPA: 60%
Ipomoea hederacea; 50 gai/ha
  % activity, solo MCPA: 98%
Ipomoea hederacea; 100 gai/ha
  % activity, solo MCPA: 98%
Ipomoea hederacea; 200 gai/ha
  % activity, solo MCPA: 98%
Matricaria chamomilla; 50 gai/ha
  % activity, solo MCPA: 20%
Matricaria chamomilla; 100 gai/ha
  % activity, solo MCPA: 30%
Polygonum aviculare; 50 gai/ha
  % activity, solo MCPA: 10%
Polygonum aviculare; 100 gai/ha
  % activity, solo MCPA: 70%
Polygonum aviculare; 200 gai/ha
  % activity, solo MCPA: 98%
Polygonum persicaria; POLPE, 50 gai/ha
  % activity, solo MCPA: 20%
Polygonum persicaria; POLPE, 200 gai/ha
  % activity, solo MCPA: 60%
Polygonum persicaria; POPLE, 100 gai/ha
  % activity, solo MCPA: 35%
Stellaria media; STEME, 50 gai/ha, postemergence
  % activity, solo MCPA: 0%
Stellaria media; STEME, 100 gai/ha, postemergence
  % activity, solo MCPA: 0%
Stellaria media; STEME, 200 gai/ha, postemergence
  % activity, solo MCPA: 20%
Sorghum bicolor; SORVU, 200 gai/ha, postemergence, 20 DAT
  % activity, solo MCPA: 30%

## COc1nc(C)nc(=NC(=O)NS(=O)(=O)c2ccccc2C(=O)O)[nH]1 [metsulfuron, Metsulfuron]
Ambrosia elatior; [1]
  inhibition at 0.25 g/ha: 0%
  inhibition at 0.5 g/ha: 5%
  inhibition at 1 g/ha: 98%
Polygonum convolvulus; [2]
  inhibition at 0.5 g/ha: 70%
  inhibition at 1 g/ha: 95%
Amaranthus retroflexus; Amaranthus retroflexus, post-emergence, 480 h, read-out: % activity, solo metsulfuron
  inhibition at 1 g/ha: 95%
Conyza canadiensis; Conyza, post-emergence, 480 h, read-out: % activity, solo metsulfuron
  inhibition at 0.5 g/ha: 90%
Polygonum persicaria; [3]
  inhibition at 0.5 g/ha: 95%
  inhibition at 1 g/ha: 95%
Stellaria media; Stellaria media, post-emergence, 480 h, read-out: % activity, solo metsulfuron
  inhibition at 0.25 g/ha: 98%
Sorghum bicolor; [4]
  inhibition at 0.5 g/ha: 20%
  inhibition at 1 g/ha: 35%

## Cc1ccc(NC(=O)N(C)C)cc1Cl [dicuran, Chlorotoluron]
Abutilon theoprasti; Abutilon, post-emergence, 62.5 gai/ha, read-out: % activity, solo application dicuran
  inhibition at 62.5 g/ha: 50%
Setaria viridis
  inhibition at 62.5 g/ha: 0%
Polygonum convolvulus; Fallopia convolvulus, post-emergence, POLCO, 62.5 gai/ha, postemergence, read-out: % activity, solo application dicuran
  inhibition at 62.5 g/ha: 80%
Amaranthus retroflexus; Amaranthus retroflexus, post-emergence, AMARE, 62.5 gai/ha, postemergence, read-out: % activity, solo application dicuran
  inhibition at 62.5 g/ha: 60%
Chenopodium album; Chenopodium album, post-emergence, 62.5 gai/ha, read-out: % activity, solo application dicuran
  inhibition at 62.5 g/ha: 90%
Conyza canadiensis; Conyza, post-emergence, ERICA, 62.5 gai/ha, postemergence, read-out: % activity, solo application dicuran
  inhibition at 62.5 g/ha: 75%
Ipomoea hederacea; Ipomoea hederacea, post-emergence, 62.5 gai/ha, read-out: % activity, solo application dicuran
  inhibition at 62.5 g/ha: 85%
Matricaria chamomilla; Matricaria chamomilla, post-emergence, 62.5 gai/ha, read-out: % activity, solo application dicuran
  inhibition at 62.5 g/ha: 85%
Stellaria media; Stellaria media, post-emergence, STEME, 62.5 gai/ha, postemergence, read-out: % activity, solo application dicuran
  inhibition at 62.5 g/ha: 85%
Galium aparine
  inhibition at 62.5 g/ha: 35%
ALOMY
  inhibition at 62.5 g/ha: 0%
APESV
  inhibition at 62.5 g/ha: 0%
AVEFA
  inhibition at 62.5 g/ha: 0%
BROST
  inhibition at 62.5 g/ha: 0%
CONAR
  inhibition at 62.5 g/ha: 0%
DIGSA
  inhibition at 62.5 g/ha: 0%
